From patent publication US9422240B2, “Partially saturated nitrogen-containing heterocyclic compound” (TAISHO PHARMACEUTICAL CO., LTD, priority 2012, dated 2016)
pIC50: −log10 of the molar value.

Experiments:
[1] = target: T1, human PHD2 (Homo sapiens (Human), UniProt Q9GZT9); assay: Test 2: human PHD2 inhibitory activity, fluorescence polarization assay of HIF-1α peptide proline hydroxylation; type: biochemical; conditions: for inhibition at 1 µM: test compound's concentration 1 μM, Test 2, fluorescence polarization assay, read-out: Percent inhibition (% at 1 μM)
T1 sequence (Q9GZT9 whole entry): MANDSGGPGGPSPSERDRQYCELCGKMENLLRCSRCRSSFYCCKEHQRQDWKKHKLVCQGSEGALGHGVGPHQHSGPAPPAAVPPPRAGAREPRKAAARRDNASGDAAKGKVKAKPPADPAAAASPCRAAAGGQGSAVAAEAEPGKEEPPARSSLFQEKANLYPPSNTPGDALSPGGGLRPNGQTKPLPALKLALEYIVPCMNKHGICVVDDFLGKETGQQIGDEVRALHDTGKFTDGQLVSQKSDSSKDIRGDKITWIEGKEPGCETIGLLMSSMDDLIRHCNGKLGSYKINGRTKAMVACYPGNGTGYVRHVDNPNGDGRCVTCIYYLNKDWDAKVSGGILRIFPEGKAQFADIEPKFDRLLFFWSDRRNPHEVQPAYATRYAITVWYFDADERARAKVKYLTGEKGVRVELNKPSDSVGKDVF
Outline: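 Enzyme from lysate of cells expressing human PHD2 (NM_022051), 40 ng/well, added to compound and 19-residue HIF-1α peptide substrate; 20 min at 30° C., EDTA quench. Prolyl hydroxylation detected by HIF-OH antibody binding via fluorescence polarization; inhibition relative to compound-free wells.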

[2] = target: T1, human PHD2; assay: Test 1: human PHD2 inhibitory activity, [14C]-2-oxoglutarate to [14C]-succinic acid radiometric assay with HIF-1α peptide; type: biochemical; conditions: test compound's concentration 1 μM; Test 1, [14C]-2-oxoglutarate radiometric assay; read-out: Percent inhibition (% at 1 μM)
Description: (1) Expression and Preparation of Human PHD2
Human PHD2 was expressed in insect cells (HighFive cells). A registered sequence of human PHD2 (NM_022051) was introduced into the pFastBacl vector (Invitrogen), and the sequence was verified. The vector was introduced into Sf9 insect cells (Invitrogen) to acquire human PHD2 baculovirus. HighFive insect cells (Invitrogen) were infected with this recombinant virus and cultured at 27° C. for 72 hours; thereafter, a cell lysis solution containing various protease inhibitors was added and the cells were disrupted to form a suspension. The suspension of disrupted cells was centrifuged at 4° C. and 100,000×g for 30 minutes and the supernatant was recovered as a cell lysate.
(2) Measurement of Human PHD2 Inhibitory Activity
The activity of human PHD2 enzyme was measured with a substrate which is a 19-residue partial peptide based on the sequence of HIF-1α. Specifically, the conversion of 2-oxoglutarate to succinic acid which would occur simultaneously with the hydroxylation of a proline residue in the peptide with the PHD2 enzyme was utilized. To be more specific, [^14C]-2-oxogiutarate was added to the reaction system to initiate an enzymatic reaction and the [^14C]-2-oxoglutarate remaining after the reaction was bound to 2,4-dinitrophenylhydrazine (DNPH), with the resulting precipitate being removed by passage through a filter. Subsequently, radiation counting was conducted on the resulting [^14C]-succinic acid.
A test compound, HIF-1αpeptide and [^14C]-2-oxoglutarate were preliminarily added onto 96-well plates and reaction was initiated by adding a human PHD2 enzyme solution (4 μg/well). After 15-min incubation at 37° C., a DNPH-containing quench solution was added and the mixture was allowed to stand at room temperature for 30 minutes. Thereafter, an excess of non-radiolabelled 2-oxoglutarate was added and the mixture was allowed to stand at room temperature for 60 minutes. The resulting precipitate was removed by passage through a filter and the radiation count on the [^14C]-succinic acid was quantified (with MicroBeta). Radiation counting was conducted for each well and the human PHD2 inhibitory activity of each test compound was calculated on the basis of the values for the substrate-free group and the test compound-free group.

Compound	inhibition at 1 µM [1] [%]	inhibition at 1 µM [2] [%]	pIC50 ([1]; human PHD2, fluorescence polarization assay, 20-min incubation at 30° C.)
O=C(O)CNC(=O)C1=C(O)CC2(CCCCC2)N(Cc2ccc(C(F)(F)F)cc2)C1=O [Ex. 1-63]	69	43	
O=C(O)CNC(=O)C1=C(O)C2(CCOCC2)CN(Cc2ccc(C(F)(F)F)cc2)C1=O [Ex. 1-64]	81	80	
CSc1ccc(CN2CCC(O)=C(C(=O)NCC(=O)O)C2=O)cc1 [Ex. 1-65]	85	84	
O=C(O)CNC(=O)C1=C(O)CCN(Cc2cccc(Cl)c2)C1=O [Ex. 1-66]	77	80	
O=C(O)CNC(=O)C1=C(O)CCN(Cc2ccc(Cl)c(Cl)c2)C1=O [Ex. 1-67]	89	84	
O=C(O)CNC(=O)C1=C(O)CCN(Cc2cccc(OC(F)(F)F)c2)C1=O [Ex. 1-68]	66	67	
CCOc1ccc(CN2CCC(O)=C(C(=O)NCC(=O)O)C2=O)cc1 [Ex. 1-71]	85	81	
O=C(O)CNC(=O)C1=C(O)CCN(Cc2ccc(Oc3ccccc3)nc2)C1=O [Ex. 1-72]	89	98	7.03
O=C(O)CNC(=O)C1=C(O)CCN(Cc2ccc(-c3ccccc3)nc2)C1=O [Ex. 1-73]	90	99	
O=C(O)CNC(=O)C1=C(O)CCN(Cc2ccc(Cl)c(C(F)(F)F)c2)C1=O [Ex. 1-74]	86	80	
O=C(O)CNC(=O)C1=C(O)CC(Cc2ccccc2)N(Cc2ccc(-c3ccccc3)cc2)C1=O (centres unmarked) [Ex. 1-75]	84	54	
O=C(O)CNC(=O)C1=C(O)CC(CCc2ccccc2)N(Cc2ccc(-c3ccccc3)cc2)C1=O (centres unmarked) [Ex. 1-76]	79	40	
CC1CC(O)=C(C(=O)NCC(=O)O)C(=O)N1Cc1ccc(-c2ccccn2)cc1 (centres unmarked) [Ex. 1-77]	85	74	
CC1CC(O)=C(C(=O)NCC(=O)O)C(=O)N1Cc1ccc(C(F)(F)F)cc1 (centres unmarked) [Ex. 1-78]	78	70	
Cc1ccc(CN2C(=O)C(C(=O)NCC(=O)O)=C(O)CC2C)cc1 (centres unmarked) [Ex. 1-79]	71	64	
CC1CC(O)=C(C(=O)NCC(=O)O)C(=O)N1CC1CCC(c2ccccc2)CC1 (centres unmarked) [Ex. 1-80]	88	76	
O=C(O)CNC(=O)C1=C(O)CC(C(F)(F)F)N(Cc2ccc(-c3ccccc3)cc2)C1=O (centres unmarked) [Ex. 1-81]	64	72	
O=C(O)CNC(=O)C1=C(O)C2(CCCCC2)CN(Cc2ccc(C(F)(F)F)cc2)C1=O [Ex. 1-82]	77	51	
O=C(O)CNC(=O)C1=C(O)C2(CCC2)CN(Cc2ccc(C(F)(F)F)cc2)C1=O [Ex. 1-83]	73	54	
Cc1ccc(CN2C(=O)C(C(=O)NCC(=O)O)=C(O)CC23CCCCC3)cc1 [Ex. 1-84]	67	42	
CC1(C)CC(O)=C(C(=O)NCC(=O)O)C(=O)N1Cc1ccc(C(F)(F)F)cc1 [Ex. 1-85]	65	61	
Cc1ccc(CN2CC3(CCCCC3)C(O)=C(C(=O)NCC(=O)O)C2=O)cc1 [Ex. 1-86]	71	48	
CC(C)(C)c1ccc(-c2ccc(CN3C(=O)C(C(=O)NCC(=O)O)=C(O)CC34CCOCC4)cc2)cc1 [Ex. 1-87]	86	46	
Cc1ccc(CN2C(=O)C(C(=O)NCC(=O)O)=C(O)CC2(C)C)cc1 [Ex. 1-88]	55	44	
Cc1ccc(CN2CC3(CCOCC3)C(O)=C(C(=O)NCC(=O)O)C2=O)cc1 [Ex. 1-89]	72	69	
Cc1ccc(CN2CC3(CCC3)C(O)=C(C(=O)NCC(=O)O)C2=O)cc1 [Ex. 1-90]	63	58	
O=C(O)CNC(=O)C1=C(O)C2(CCCCC2)CN(Cc2cnc(-c3ccccc3)s2)C1=O [Ex. 1-91]	94	85	

Compound	inhibition at 1 µM [1] [%]	inhibition at 1 µM [2] [%]	pIC50 ([1]; human PHD2, fluorescence polarization assay, 20-min incubation at 30° C.)
Cc1ccc(CN2CC(C)C(O)=C(C(=O)NCC(=O)O)C2=O)cc1 (centres unmarked) [Ex. 1-92]	66	69	
CC1CN(Cc2ccc(-c3ccccn3)cc2)C(=O)C(C(=O)NCC(=O)O)=C1O (centres unmarked) [Ex. 1-93]	81	80	
CC1CC(O)=C(C(=O)NCC(=O)O)C(=O)N1Cc1cnc(-c2ccccc2)s1 (centres unmarked) [Ex. 1-94]	92	84	
O=C(O)CNC(=O)C1=C(O)C2(CCC2)CN(Cc2cnc(-c3ccccc3)s2)C1=O [Ex. 1-95]	91	85	
CC1(C)CC(O)=C(C(=O)NCC(=O)O)C(=O)N1Cc1cnc(-c2ccccc2)s1 [Ex. 1-96]	86	82	
O=C(O)CNC(=O)C1=C(O)C2(CCOCC2)CN(Cc2cnc(-c3ccccc3)s2)C1=O [Ex. 1-97]	91	89	
O=C(O)CNC(=O)C1=C(O)CC2(CCOCC2)N(Cc2cnc(-c3ccccc3)s2)C1=O [Ex. 1-98]	88	88	
O=C(O)CNC(=O)C1=C(O)CC2(CCOCC2)N(CC2CCC(c3ccccc3)CC2)C1=O (centres unmarked) [Ex. 1-99]	92	71	
CC1CC(O)=C(C(=O)NCC(=O)O)C(=O)N1Cc1ccc(-c2ccc(C(F)(F)F)cc2)cc1 (centres unmarked) [Ex. 1-100]	84	64	
O=C(O)CNC(=O)C1=C(O)C2(CCCCC2)CN(Cc2ccc(-c3ccccn3)cc2)C1=O [Ex. 1-101]	86	60	
O=C(O)CNC(=O)C1=C(O)C2(CCC2)CN(Cc2ccc(-c3ccccn3)cc2)C1=O [Ex. 1-102]	83	67	
CC1CN(Cc2ccc(C(F)(F)F)cc2)C(=O)C(C(=O)NCC(=O)O)=C1O (centres unmarked) [Ex. 1-103]	82	76	
CC1CN(Cc2cnc(-c3ccccc3)s2)C(=O)C(C(=O)NCC(=O)O)=C1O (centres unmarked) [Ex. 1-104]	94	87	
O=C(O)CNC(=O)C1=C(O)CC2(CCOCC2)N(Cc2ccc(-c3ccccn3)cc2)C1=O [Ex. 1-105]	83	78	
O=C(O)CNC(=O)C1=C(O)CC2(CCOCC2)N(Cc2ccc(C(F)(F)F)cc2)C1=O [Ex. 1-106]	72	66	
CC1CN(CC2CCC(c3ccccc3)CC2)C(=O)C(C(=O)NCC(=O)O)=C1O (centres unmarked) [Ex. 1-107]	90	67	
CC1CN(Cc2ccc(-c3ccc(C(F)(F)F)cc3)cc2)C(=O)C(C(=O)NCC(=O)O)=C1O (centres unmarked) [Ex. 1-108]	87	60	
CC1(C)CC(O)=C(C(=O)NCC(=O)O)C(=O)N1Cc1ccc(-c2ccccn2)cc1 [Ex. 1-109]	77	70	
O=C(O)CNC(=O)C1=C(O)C2(CCOCC2)CN(Cc2ccc(-c3ccccn3)cc2)C1=O [Ex. 1-110]	84	82	
O=C(O)CNC(=O)C1=C(O)CC2(CCCCC2)N(Cc2ccc(-c3ccccn3)cc2)C1=O [Ex. 1-111]	80	68	
O=C(O)CNC(=O)C1=C(O)CC2(CCCCC2)N(Cc2cnc(-c3ccccc3)s2)C1=O [Ex. 1-112]	90	68	
O=C(O)CNC(=O)C1=C(O)CCN(Cc2ccc(C(F)(F)F)c(F)c2)C1=O [Ex. 1-113]	84	79	
O=C(O)CNC(=O)C1=C(O)C2(CCC2)CN(CC2CCC(c3ccccc3)CC2)C1=O (centres unmarked) [Ex. 1-114]	83	36	
CC1(C)CC(O)=C(C(=O)NCC(=O)O)C(=O)N1CC1CCC(c2ccccc2)CC1 (centres unmarked) [Ex. 1-115]	83	49	
O=C(O)CNC(=O)C1=C(O)C2(CCOCC2)CN(CC2CCC(c3ccccc3)CC2)C1=O (centres unmarked) [Ex. 1-117]	92	83	
CC1(C)CC(O)=C(C(=O)NCC(=O)O)C(=O)N1Cc1ccc(-c2ccc(C(F)(F)F)cc2)cc1 [Ex. 1-118]	87	77	
